Where a name gives a salt, the structure may show the parent alone.
Test system: patients hospitalized for acute heart failure (AHF)
Experiment: Echocardiographic parameters (tissue Doppler echocardiography), phase II trial of 24 h istaroxime infusion
Format: in vivo, human
Set-up: E/e′ change from baseline to 24 h: dose or concentration left out as unconfirmed
Conditions: for A wave mean change from baseline / CI mean change from baseline / E wave mean change from baseline / E/A ratio mean change from baseline / E/e′ ratio mean change from baseline / EDV Index mean change from baseline / EDV mean change from baseline / ESV Index mean change from baseline / ESV mean change from baseline / IVC diameter mean change from baseline / LAA mean change from baseline / LAV mean change from baseline / LAVI mean change from baseline / LVEF mean change from baseline / PASP mean change from baseline / SVI mean change from baseline / S′ mean change from baseline / TAPSE mean change from baseline / e′ mean change from baseline: 1.0 μg/Kg/min; for E/e′ change from baseline to 24 h (primary endpoint): 1.0 μg/kg/min (cohort 2), mITT, hydrochloride
From the text: The measurement of one or more cardiac parameters disclosed herein can be measured by Echocardiography which may be performed on subjects according to international standards (see, for example, Lang R M et a I. J Am Soc Echocardiogr 2005; 18(12): 1440-63; Nagueh S F et al. Eur J Echocardiogr 2009; 10(2): 165-93; Evangelista A et a I. Eur J Echocardiogr 2008; 9(4):438-48).
In some embodiments, cardiac parameters can be measured as follows: • 1. Cardiac dimension measures: • a. Left ventricle end diastolic diameter (EDD): measured with M-mode echocardiography at the level of mitral valve (MV) leaflets from parasternal long axis view (PLAX) (normal range [N R]: 42-59 mm males and 39-53 mm females); • b. Left ventricle end systolic diameter (ESD): measured with M-mode echocardiography at the level of mitral valve (MV) leaflets from PLAX (N R: 25-35 mm): • c. Left ventricle end diastolic volume (EDV): measured with M-mode echocardiography at the level of mitral valve (MV) leaflets from PLAX (N R: 67-155 mL males and 56-104 mL females); • d. Left ventricle end systolic volume (ESV): measured with M-mode echocardiography at the level of mitral valve (MV) leaflets from PLAX (N R: 22-58 mL males and 19-49 mL females); • e. Left atrium diameter (LAD): measured at end-ventricular systole with M-mode echocardiography from PLAX. (N R: 30-40 mm males and 27-38 mm females) • f. Left atrium area (LAA): measured from apical four chamber view (NR: £20 cm2); and • g. Left atrium volume (LAV): derived from area-length measured from apical four chamber view (N R: 18-58 mL males and 22-52 mL females). • 2. Left ventricle diastolic function parameters: • a. E wave: measured from mitral valve pulsed wave Doppler, is the peak velocity of early filling. […] A wave: measured from mitral valve pulsed wave Doppler is the peak velocity of late atrial filling. Not evaluable in subjects with AF: • c. E wave deceleration time (EDT): measured from mitral valve pulsed wave Doppler represent the slope of the descending part of E wave; • d. E/A ratio: determines the type of diastolic filling pattern (normal E/A=1-2 and EDT=150-200 ms, abnormal relaxation E/A<1 and EDT>240 ms, pseudonormal E/A=0.8-1.5: restrictive E/A^32 and EDT <160 ms). Not evaluable in subjects with AF; • e. Ea: measured with tissue Doppler method at the lateral and septal side of the mitral annulus from apical four chamber view is the early diastolic velocity. The value has been calculated as the average between Ea lateral and Ea septal. (NR310 cm/s) (see Nagueh S F et al. Eur J Echocardiogr. 2009:10(2):165-93); • f. Aa: measured with tissue Doppler method at the lateral and septal side of the mitral annulus from apical four chamber view is the late atrial diastolic velocity. The value has been calculated as the average between Aa lateral and Aa septal. Not evaluable in subjects with AF; and • g. E/Ea ratio: this is a derived measure from E and Ea value. This is highly correlated with left ventricle filling pressure and with prognosis in subjects with HF. (NR: <13) (see Nagueh S F et al. supra). • 3. Left ventricle systolic function parameters: • a. Left ventricle ejection fraction (LVEF): measured with Simpson biplane method according to international recommendations from apical four chamber view and apical two chamber view. (NR ^355%) (see Lang R M et al. J Am Soc Echocardiogr. 2005:18(12): 1440-63); and • b. Sa: measured with tissue Doppler method at the lateral and septal side of the mitral annulus from apical four chamber view. The value has been calculated as the average between Sa lateral and Sa septal. […] Overall cardiac contraction parameters: • a. Stroke volume (SV): is a derived measure obtained with the application of Bernoulli's formula using the dimension of left ventricle outflow tract (LVOT) as diameter and LVOT time velocity integral as velocity. (NR>60 mL/beat); • b. Cardiac output (CO): is derived by the multiplication of SV× heart rate (HR) (NR: >4 L/min); • c. […]

[1] = 1.0 μg/kg/min, mean ± standard deviation

With `C[C@]12CCC(=NOCCN)C[C@@H]1C(=O)C[C@@H]1[C@@H]2CC[C@]2(C)C(=O)CC[C@@H]12` [Istaroxime, (E,Z)-3-((2-aminoethoxy)imino)androstane-6,17-dione hydrochloride] the “A wave mean change from baseline” value (6 hours) was 5.88 cm/s, the “CI mean change from baseline” value (6 hours) was 0.15 l/min/m^2 and the “E wave mean change from baseline” value (6 hours) was -10.19 cm/s. For the same compound, the “E/A ratio mean change from baseline” value (6 hours) was −0.35, the “E/e′ ratio mean change from baseline” value (6 hours) was −2.05 and the “EDV Index mean change from baseline” value (6 hours) was 0.64 ml/m^2. For the same compound, the “EDV mean change from baseline” value (6 hours) was 1.35 mL, the “ESV Index mean change from baseline” value (6 hours) was −2.42 ml/m^2 and the “ESV mean change from baseline” value (6 hours) was -4.62 mL. The “IVC diameter mean change from baseline” value (6 hours) was −1.24 mm, the “LAA mean change from baseline” value (6 hours) was −1.03 cm^2 and the “LAV mean change from baseline” value (6 hours) was -4.94 mL. The “LAVI mean change from baseline” value (6 hours) was −2.86 mL/m^2, the “LVEF mean change from baseline” value (6 hours) was 2.35% and the “PASP mean change from baseline” value (6 hours) was −2.60 mmHg. The “SVI mean change from baseline” value (6 hours) was 4.32 ml/beat/m^2, the “S′ mean change from baseline” value (6 hours) was 1.00 cm/s and the “TAPSE mean change from baseline” value (6 hours) was 1.56 mm. For the same compound, the “e′ mean change from baseline” value (6 hours) was -0.03 cm/s, the “A wave mean change from baseline” value (24 hours) was 9.00 cm/s and the “CI mean change from baseline” value (24 hours) was 0.15 l/min/m^2. The “E wave mean change from baseline” value (24 hours) was -14.06 cm/s, the “E/A ratio mean change from baseline” value (24 hours) was −0.65 and the “E/e′ ratio mean change from baseline” value (24 hours) was −3.16. For the same compound, the “EDV Index mean change from baseline” value (24 hours) was −2.08 ml/m^2, the “EDV mean change from baseline” value (24 hours) was -3.67 mL and the “ESV Index mean change from baseline” value (24 hours) was −6.23 ml/m^2. For the same compound, the “ESV mean change from baseline” value (24 hours) was -11.39 mL, the “IVC diameter mean change from baseline” value (24 hours) was −2.23 mm and the “LAA mean change from baseline” value (24 hours) was −2.21 cm^2. For the same compound, the “LAV mean change from baseline” value (24 hours) was -12.94 mL, the “LAVI mean change from baseline” value (24 hours) was −7.32 mL/m^2 and the “LVEF mean change from baseline” value (24 hours) was 3.82%. The “PASP mean change from baseline” value (24 hours) was −4.76 mmHg, the “SVI mean change from baseline” value (24 hours) was 5.49 ml/beat/m^2 and the “S′ mean change from baseline” value (24 hours) was 0.81 cm/s. For the same compound, the “TAPSE mean change from baseline” value (24 hours) was 1.16 mm, the “e′ mean change from baseline” value (24 hours) was 0.10 cm/s and the “A wave mean change from baseline” value (48 hours) was 5.30 cm/s. The “CI mean change from baseline” value (48 hours) was 0.20 l/min/m^2, the “E wave mean change from baseline” value (48 hours) was -11.53 cm/s and the “E/A ratio mean change from baseline” value (48 hours) was −0.36. For the same compound, the “E/e′ ratio mean change from baseline” value (48 hours) was −2.21, the “EDV Index mean change from baseline” value (48 hours) was −1.86 ml/m^2 and the “EDV mean change from baseline” value (48 hours) was -3.18 mL. For the same compound, the “ESV Index mean change from baseline” value (48 hours) was −4.46 ml/m^2, the “ESV mean change from baseline” value (48 hours) was -8.09 mL and the “IVC diameter mean change from baseline” value (48 hours) was −2.19 mm. For the same compound, the “LAA mean change from baseline” value (48 hours) was −0.94 cm^2, the “LAV mean change from baseline” value (48 hours) was -6.67 mL and the “LAVI mean change from baseline” value (48 hours) was −3.80 mL/m^2. For the same compound, the “LVEF mean change from baseline” value (48 hours) was 2.06%, the “PASP mean change from baseline” value (48 hours) was −3.00 mmHg and the “SVI mean change from baseline” value (48 hours) was 2.91 ml/beat/m^2. For the same compound, the “S′ mean change from baseline” value (48 hours) was 0.26 cm/s, the “TAPSE mean change from baseline” value (48 hours) was 0.31 mm and the “e′ mean change from baseline” value (48 hours) was 0.19 cm/s. For the same compound, the “E/e′ change from baseline to 24 h (primary endpoint)” value (mean ± standard deviation) was −3.16 ± 2.59, the “E/e′ change from baseline to 24 h (primary endpoint)” value (mean ± standard deviation, listed as istaroxime) was −3.16±2.59 and the “E/A ratio change at 24 h” value [1] was −0.65 ± 1.10. The “LV ejection fraction change at 24 h” value [1] was 3.82 ± 4.14%, the “LV end-diastolic volume index change at 24 h” value [1] was −2.08 ± 9.05 mL/m^2 and the “LV end-systolic volume index change at 24 h” value [1] was −6.23 ± 9.23 mL/m^2. The “Left atrial area change at 24 h” value [1] was −2.21 ± 3.18 cm^2, the “Left atrial volume index change at 24 h” value [1] was −7.32 ± 10.0 mL/m^2 and the “Stroke volume index change at 24 h” value [1] was 5.49 ± 4.98 mL/beat/m^2. For the same compound, the “S′ change at 24 h” value [1] was 0.81 ± 1.01 cm/s and the “E/e′ change from baseline to 24 h” value (per-protocol population) was −3.19±2.63.

Reference: patent US12697343B2, “Intravenous istaroxime for the treatment of acute heart failure” (Seismic Pharmaceuticals Operations LLC, priority 2021, dated 2026)
